Reference: ChEMBL document CHEMBL1201862, “PubChem BioAssay data set” (2004)
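Compound exposure: 48 hours, 5 concentrations, 96-well plates. GI50 is the concentration that inhibits growth by half.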 Active and inactive are the calls of the source. No stated cut-off is given here; in the data, active = GI50 up to about 1.1 µM and inactive = higher.

How the values were obtained:
Assay in all cases: inhibition of tumour cell growth, NCI panel, 48 h
EKVX = tested on: EKVX
NCI-H23 = tested on: NCI-H23
HOP-62 = tested on: HOP-62
HOP-92 = tested on: HOP-92
SNB-75 = tested on: SNB-75
SNB-19 = tested on: SNB-19
M14 = tested on: M14
SF-268 = tested on: SF-268
DLD-1 = tested on: DLD-1
SW-620 = tested on: SW-620
NCI-H522 = tested on: NCI-H522
RPMI-8226 = tested on: RPMI-8226
TK-10 = tested on: TK-10
NCI-H226 = tested on: NCI-H226
RXF 393 = tested on: RXF 393
DMS-114 = tested on: DMS-114
MDA-MB-435 = tested on: MDA-MB-435
DU-145 = tested on: DU-145
T47D = tested on: T47D
NCI/ADR-RES = tested on: NCI/ADR-RES

Measured: GI50

O=[N+]([O-])c1nc(-c2ccccn2)[nH]c1[N+](=O)[O-]
inactive: EKVX > 100 µM | NCI-H23 42.4 µM | HOP-62 > 100 µM | HOP-92 > 100 µM | SNB-75 64 µM | SNB-19 > 100 µM | M14 80.5 µM | SF-268 43.6 µM | DLD-1 70.5 µM | SW-620 66.2 µM | NCI-H522 18.6 µM | RPMI-8226 > 100 µM | TK-10 > 100 µM | NCI-H226 74.1 µM | RXF 393 76.7 µM | DMS-114 19 µM

O=C(O)C1(Cc2ccccc2)Cc2ccccc2C1
inactive: EKVX > 100 µM | NCI-H23 > 100 µM | HOP-62 > 100 µM | SNB-75 10.6 µM | MDA-MB-435 > 100 µM | SNB-19 > 100 µM | M14 > 100 µM | SF-268 > 100 µM | DU-145 > 100 µM | SW-620 > 100 µM | T47D > 100 µM | NCI-H522 > 100 µM | NCI/ADR-RES > 100 µM | RPMI-8226 > 100 µM | TK-10 > 100 µM | NCI-H226 > 100 µM | RXF 393 69.7 µM

COc1cc(C2=C(C#N)C(N)OC3=C2COc2ccccc23)cc(OC)c1OC (configuration not stated)
inactive: EKVX 16.2 µM | NCI-H23 33.9 µM | HOP-62 6.62 µM | HOP-92 40.8 µM | MDA-MB-435 34.3 µM | SNB-19 9.29 µM | M14 42 µM | SF-268 14.9 µM | DU-145 10.6 µM | SW-620 50.1 µM | NCI/ADR-RES 25.2 µM | RPMI-8226 46.6 µM | TK-10 13.7 µM | NCI-H226 30.4 µM

CN1C=C(C(N)=O)C2CC(O)[C@@](NC(=O)CS(N)(=O)=O)(C(=O)O)C2C1 (some centres not stated)
inactive: EKVX 4.19 µM | NCI-H23 1.86 µM | HOP-62 1.82 µM | HOP-92 1.49 µM | SNB-75 2.23 µM | SNB-19 2.79 µM | M14 1.49 µM | SF-268 3.02 µM | DLD-1 16.8 µM | SW-620 3.87 µM | NCI-H522 11.7 µM | RPMI-8226 18 µM | TK-10 3.92 µM | NCI-H226 2.68 µM | RXF 393 1.76 µM | DMS-114 2.52 µM

CCOC(=O)NC(Nc1cc(Cl)ccc1OC)(C(F)(F)F)C(F)(F)F
inactive: EKVX > 100 µM | NCI-H23 > 100 µM | HOP-62 > 100 µM | HOP-92 > 100 µM | SNB-75 > 100 µM | MDA-MB-435 > 100 µM | SNB-19 > 100 µM | M14 > 100 µM | SF-268 > 100 µM | DU-145 > 100 µM | SW-620 > 100 µM | T47D > 100 µM | NCI-H522 64 µM | RPMI-8226 > 100 µM | TK-10 > 100 µM | NCI-H226 > 100 µM | RXF 393 68.9 µM

C[N+](C)(CCCCCC[N+](C)(C)CCCN1C(=O)c2cccc3cccc(c23)C1=O)CCCN1C(=O)c2cccc3cccc(c23)C1=O
inactive: EKVX > 100 µM | NCI-H23 > 100 µM | HOP-92 > 100 µM | MDA-MB-435 > 100 µM | SNB-19 > 100 µM | SF-268 > 100 µM | DU-145 > 100 µM | SW-620 > 100 µM | T47D > 100 µM | NCI-H522 > 100 µM | NCI/ADR-RES > 100 µM | RPMI-8226 > 100 µM | TK-10 > 100 µM | RXF 393 > 100 µM

CC12CCC3=C(CSC4=C3CSc3ccccc34)C1=CCCC2=O (configuration not stated)
inactive: EKVX 42.5 µM | NCI-H23 > 100 µM | HOP-62 20.4 µM | SNB-19 66.5 µM | M14 27.8 µM | SF-268 > 100 µM | DLD-1 29.4 µM | SW-620 > 100 µM | NCI-H522 27.4 µM | RPMI-8226 61.2 µM | TK-10 38 µM | NCI-H226 64.3 µM | RXF 393 40.2 µM | DMS-114 69.5 µM

S=C1SC(=N\c2ccccc2)/C(=N/c2ccccc2)N1c1ccc2ccccc2c1
inactive: NCI-H23 > 100 µM | HOP-62 > 100 µM | SNB-75 74.8 µM | MDA-MB-435 > 100 µM | SNB-19 > 100 µM | M14 > 100 µM | DU-145 > 100 µM | T47D > 100 µM | NCI-H522 > 100 µM | NCI/ADR-RES > 100 µM | RPMI-8226 > 100 µM | NCI-H226 > 100 µM | RXF 393 7.26 µM

CN(C)CCCNC(=O)c1cccc2ccccc12
inactive: NCI-H23 > 100 µM | SNB-75 > 100 µM | SNB-19 > 100 µM | SF-268 > 100 µM | DLD-1 > 100 µM | SW-620 > 100 µM | NCI-H522 > 100 µM | TK-10 > 100 µM | NCI-H226 > 100 µM | RXF 393 > 100 µM | DMS-114 > 100 µM

C[C@H]1SC(c2ccc(Cl)cc2Cl)N(NC(=O)c2ccncc2)C1=O (some centres not stated)
inactive: EKVX 31.1 µM | NCI-H23 33.3 µM | HOP-62 33.7 µM | HOP-92 45.7 µM | SNB-75 45.7 µM | MDA-MB-435 23.9 µM | SNB-19 43.2 µM | M14 21.8 µM | SF-268 22.5 µM | DU-145 38.1 µM | T47D 37.1 µM | NCI-H522 22.6 µM | NCI/ADR-RES 36.9 µM | RPMI-8226 35.6 µM | NCI-H226 18.5 µM | RXF 393 14.7 µM

O=C(Nc1ccn(CCO)c(=O)n1)c1ccccc1
inactive: EKVX > 100 µM | HOP-62 > 100 µM | HOP-92 > 100 µM | SNB-75 > 100 µM | M14 > 100 µM | SF-268 > 100 µM | DLD-1 > 100 µM | SW-620 > 100 µM | NCI-H522 > 100 µM | RPMI-8226 > 100 µM | TK-10 > 100 µM | NCI-H226 > 100 µM | RXF 393 > 100 µM | DMS-114 > 100 µM

Cc1cc(Cl)cc2c1NC(=O)C2(O)CC(=O)c1ccco1 (configuration not stated)
inactive: EKVX > 100 µM | NCI-H23 > 53.7 µM | HOP-62 > 100 µM | HOP-92 > 100 µM | SNB-75 55.1 µM | MDA-MB-435 2.92 µM | SNB-19 > 100 µM | M14 > 66.2 µM | SF-268 > 100 µM | DU-145 > 100 µM | DLD-1 > 100 µM | SW-620 > 78.2 µM | T47D > 100 µM | NCI-H522 > 100 µM | NCI/ADR-RES 59.7 µM | RPMI-8226 47 µM | TK-10 > 100 µM | NCI-H226 > 100 µM | RXF 393 57 µM | DMS-114 > 100 µM
